Experimental data published in patent US20230114728A1 (Venatorx Pharmaceuticals, Inc., priority 2019, published 2023).
≈ marks a conversion by molar mass, not a printed value.

Experiments:
Assay in all cases: Broth microdilution MIC in CAMHB
Type in all cases: cell-based
[1] = test system: K. pneumoniae 848844 producing SHV-11 and KPC-2; conditions: Klebsiella pneumoniae, read-out: Minimum Inhibitory Concentration, K. pneumoniae 848844
Summary of the method: (§1)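 Hyper-permeable or efflux-deficient strains serve to probe outer-membrane penetration. Growth inhibition is scored visually after 16-20 h at 37° C in CAMHB, starting from 2-8×10^5 CFU/mL.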

[2] = test system: E. coli ATCC 25922; conditions: Escherichia coli, ATCC25922; E. coli ATCC 25922; MHB; read-out: Minimum Inhibitory Concentration, E. coli 25922
Summary of the method: as §1

[3] = test system: E. coli D22; conditions: Escherichia coli; E. coli D22 (hyper-permeable); MHB; read-out: Minimum Inhibitory Concentration, E. coli D22
Summary of the method: as §1

[4] = test system: K. pneumoniae UMM producing SHV-5 and KPC-2; conditions: Klebsiella pneumoniae, read-out: Minimum Inhibitory Concentration, K. pneumoniae UMM
Summary of the method: as §1

[5] = test system: A. baumannii ATCC 19606; conditions: Acinetobacter baumannii, ATCC19606; MHB; read-out: Minimum Inhibitory Concentration, A. baumannii ATCC 19606
Summary of the method: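 CLSI microdilution; CAMHB; inoculum 2-8×10^5 CFU/mL from 3-5 h 37° C culture; 2-fold compound series; 16-20 h, 37° C; MIC = lowest well without visible growth.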

[6] = test system: E. coli AG100; conditions: Escherichia coli; E. coli AG100 (wild-type parent); MHB; read-out: Minimum Inhibitory Concentration, E. coli AG100
Summary of the method: as §1

[7] = test system: E. coli 901C; conditions: Escherichia coli; E. coli 901C (hyper-permeable); MHB; read-out: Minimum Inhibitory Concentration, E. coli 901C
Summary of the method: as §1

[8] = test system: E. coli AG100A; conditions: Escherichia coli, read-out: Minimum Inhibitory Concentration, E. coli AG100A
Summary of the method: as §1

[9] = test system: P. aeruginosa ATCC 27853; conditions: Pseudomonas aeruginosa, ATCC27853; MHB; read-out: Minimum Inhibitory Concentration, P. aeruginosa ATCC 27853
Summary of the method: as §1

[10] = test system: K. pneumoniae SI-117 producing VIM-1; conditions: Klebsiella pneumoniae, read-out: Minimum Inhibitory Concentration, K. pneumoniae SI-117
Summary of the method: as §1

[11] = test system: P. aeruginosa (ΔmexAB-oprM); conditions: Pseudomonas aeruginosa, read-out: Minimum Inhibitory Concentration, P. aeruginosa ΔmexAB-OprM
Summary of the method: as §1

[12] = test system: P. aeruginosa ATCC 35151; conditions: Pseudomonas aeruginosa, ATCC35151; MHB; hyper-permeable strain; read-out: Minimum Inhibitory Concentration, P. aeruginosa ATCC 35151
Summary of the method: as §1

| SMILES | MIC [1] | MIC [2] | MIC [3] | MIC [4] | MIC [5] | MIC [6] | MIC [7] | MIC [8] | MIC [9] | MIC [10] | MIC [11] | MIC [12] |
| --- | --- | --- | --- | --- | --- | --- | --- | --- | --- | --- | --- | --- |
| CCN1CCN(C(=O)NC(C(=O)N[C@H]2Cc3cccc(C(=O)O)c3OB2O)c2cccc(CNS(N)(=O)=O)c2)C(=O)C1=O (stereo partly drawn) [Example 107, (3R)-3-(2-(4-ethyl-2,3-dioxopiperazine-1-carboxamido)-2-(3-((sulfamoylamino)methyl)phenyl)acetamido)-2-hydroxy-3,4-dihydro-2H-benzo[e][1,2]oxaborinine-8-carboxylic acid] | > 128 µg/mL | 32 to 64 µg/mL (≈ 51.9 to 104 µM) | 8 to 16 µg/mL (≈ 13 to 26 µM) | > 128 µg/mL | > 128 µg/mL | > 128 µg/mL | 0.5 to 1 µg/mL (≈ 0.811 to 1.62 µM) | 2 to 4 µg/mL (≈ 3.24 to 6.49 µM) | > 128 µg/mL | > 128 µg/mL | 8 to 16 µg/mL (≈ 13 to 26 µM) | 8 to 16 µg/mL (≈ 13 to 26 µM) |
| CCN1CCN(C(=O)NC(C(=O)N[C@H]2Cc3cccc(C(=O)O)c3OB2O)c2cccc(CN)c2)C(=O)C1=O (stereo partly drawn) [Example 108, (3R)-3-(2-(3-(aminomethyl)phenyl)-2-(4-ethyl-2,3-dioxopiperazine-1-carboxamido)acetamido)-2-hydroxy-3,4-dihydro-2H-benzo[e][1,2]oxaborinine-8-carboxylic acid] | > 128 µg/mL | 8 to 16 µg/mL (≈ 14.9 to 29.8 µM) | 8 to 16 µg/mL (≈ 14.9 to 29.8 µM) | 32 to 64 µg/mL (≈ 59.6 to 119 µM) | > 128 µg/mL | 32 to 64 µg/mL (≈ 59.6 to 119 µM) | 2 to 4 µg/mL (≈ 3.72 to 7.44 µM) | 2 to 4 µg/mL (≈ 3.72 to 7.44 µM) | > 128 µg/mL | 32 to 64 µg/mL (≈ 59.6 to 119 µM) | 32 to 64 µg/mL (≈ 59.6 to 119 µM) | 8 to 16 µg/mL (≈ 14.9 to 29.8 µM) |
| NCCN1CCN(C(=O)NC(C(=O)N[C@H]2Cc3cccc(C(=O)O)c3OB2O)c2cc(F)c(O)cc2Cl)C(=O)C1=O (stereo partly drawn) [Example 109, (3R)-3-(2-(4-(2-aminoethyl)-2,3-dioxopiperazine-1-carboxamido)-2-(2-chloro-5-fluoro-4-hydroxyphenyl)acetamido)-2-hydroxy-3,4-dihydro-2H-benzo[e][1,2]oxaborinine-8-carboxylic acid] | > 128 µg/mL | 32 to 64 µg/mL (≈ 54.1 to 108 µM) | 8 to 16 µg/mL (≈ 13.5 to 27 µM) | 32 to 64 µg/mL (≈ 54.1 to 108 µM) | > 128 µg/mL | > 128 µg/mL | 2 to 4 µg/mL (≈ 3.38 to 6.76 µM) | 8 to 16 µg/mL (≈ 13.5 to 27 µM) | > 128 µg/mL | > 128 µg/mL | 8 to 16 µg/mL (≈ 13.5 to 27 µM) | 2 to 4 µg/mL (≈ 3.38 to 6.76 µM) |
| CCN1CCN(C(=O)NC(C(=O)N[C@H]2Cc3cccc(C(=O)O)c3OB2O)c2cncc(O)c2)C(=O)C1=O (stereo partly drawn) [Example 112, (3R)-3-(2-(4-ethyl-2,3-dioxopiperazine-1-carboxamido)-2-(5-hydroxypyridin-3-yl)acetamido)-2-hydroxy-3,4-dihydro-2H-benzo[e][1,2]oxaborinine-8-carboxylic acid] | > 128 µg/mL | 32 to 64 µg/mL (≈ 60.9 to 122 µM) | 2 to 4 µg/mL (≈ 3.81 to 7.61 µM) | 32 to 64 µg/mL (≈ 60.9 to 122 µM) | > 128 µg/mL | 32 to 64 µg/mL (≈ 60.9 to 122 µM) | 0.5 to 1 µg/mL (≈ 0.952 to 1.9 µM) | 2 to 4 µg/mL (≈ 3.81 to 7.61 µM) | > 128 µg/mL | > 128 µg/mL | 8 to 16 µg/mL (≈ 15.2 to 30.5 µM) | 2 to 4 µg/mL (≈ 3.81 to 7.61 µM) |
| CCN1CCN(C(=O)NC(C(=O)N[C@H]2Cc3cccc(C(=O)O)c3OB2O)c2cccc(C(=O)O)c2)C(=O)C1=O (stereo partly drawn) [Example 113, (3R)-3-(2-(3-carboxyphenyl)-2-(4-ethyl-2,3-dioxopiperazine-1-carboxamido)acetamido)-2-hydroxy-3,4-dihydro-2H-benzo[e][1,2]oxaborinine-8-carboxylic acid] | > 128 µg/mL | 32 to 64 µg/mL (≈ 57.9 to 116 µM) | 2 to 4 µg/mL (≈ 3.62 to 7.24 µM) | 32 to 64 µg/mL (≈ 57.9 to 116 µM) | > 128 µg/mL | 32 to 64 µg/mL (≈ 57.9 to 116 µM) | < 0.25 µg/mL | 2 to 4 µg/mL (≈ 3.62 to 7.24 µM) | > 128 µg/mL | > 128 µg/mL | 8 to 16 µg/mL (≈ 14.5 to 29 µM) | 0.5 to 1 µg/mL (≈ 0.905 to 1.81 µM) |
| NS(=O)(=O)Nc1cccc(C(NC(=O)N2CCN(CCF)C(=O)C2=O)C(=O)N[C@H]2Cc3cccc(C(=O)O)c3OB2O)c1 (stereo partly drawn) [Example 116, (3R)-3-(2-(4-(2-fluoroethyl)-2,3-dioxopiperazine-1-carboxamido)-2-(3-(sulfamoylamino)phenyl)acetamido)-2-hydroxy-3,4-dihydro-2H-benzo[e][1,2]oxaborinine-8-carboxylic acid] | > 128 µg/mL | 8 to 16 µg/mL (≈ 12.9 to 25.8 µM) | 0.5 to 1 µg/mL (≈ 0.806 to 1.61 µM) | 32 to 64 µg/mL (≈ 51.6 to 103 µM) | > 128 µg/mL | 8 to 16 µg/mL (≈ 12.9 to 25.8 µM) | < 0.25 µg/mL | 2 to 4 µg/mL (≈ 3.22 to 6.45 µM) | > 128 µg/mL | 32 to 64 µg/mL (≈ 51.6 to 103 µM) | 8 to 16 µg/mL (≈ 12.9 to 25.8 µM) | 0.5 to 1 µg/mL (≈ 0.806 to 1.61 µM) |
| NCCCN1CCN(C(=O)N[C@@H](C(=O)N[C@H]2Cc3cccc(C(=O)O)c3OB2O)c2cccc(NS(N)(=O)=O)c2)C(=O)C1=O [Example 117, (R)-3-((R)-2-(4-(3-aminopropyl)-2,3-dioxopiperazine-1-carboxamido)-2-(3-(sulfamoylamino)phenyl)acetamido)-2-hydroxy-3,4-dihydro-2H-benzo[e][1,2]oxaborinine-8-carboxylic acid] | 32 to 64 µg/mL (≈ 50.7 to 101 µM) | 32 to 64 µg/mL (≈ 50.7 to 101 µM) | 2 to 4 µg/mL (≈ 3.17 to 6.33 µM) | 32 to 64 µg/mL (≈ 50.7 to 101 µM) | 32 to 64 µg/mL (≈ 50.7 to 101 µM) | 32 to 64 µg/mL (≈ 50.7 to 101 µM) | 2 to 4 µg/mL (≈ 3.17 to 6.33 µM) | 2 to 4 µg/mL (≈ 3.17 to 6.33 µM) | 32 to 64 µg/mL (≈ 50.7 to 101 µM) | 32 to 64 µg/mL (≈ 50.7 to 101 µM) | 2 to 4 µg/mL (≈ 3.17 to 6.33 µM) | < 0.25 µg/mL |
| NCCCN1CCN(C(=O)N[C@H](C(=O)N[C@H]2Cc3cccc(C(=O)O)c3OB2O)c2cccc(NS(N)(=O)=O)c2)C(=O)C1=O [Example 118, (R)-3-((S)-2-(4-(3-aminopropyl)-2,3-dioxopiperazine-1-carboxamido)-2-(3-(sulfamoylamino)phenyl)acetamido)-2-hydroxy-3,4-dihydro-2H-benzo[e][1,2]oxaborinine-8-carboxylic acid] | > 128 µg/mL | 32 to 64 µg/mL (≈ 50.7 to 101 µM) | 8 to 16 µg/mL (≈ 12.7 to 25.3 µM) | 32 to 64 µg/mL (≈ 50.7 to 101 µM) | > 128 µg/mL | 32 to 64 µg/mL (≈ 50.7 to 101 µM) | 2 to 4 µg/mL (≈ 3.17 to 6.33 µM) | 2 to 4 µg/mL (≈ 3.17 to 6.33 µM) | > 128 µg/mL | > 128 µg/mL | 8 to 16 µg/mL (≈ 12.7 to 25.3 µM) | 0.5 to 1 µg/mL (≈ 0.792 to 1.58 µM) |
| NC1(CN2CCN(C(=O)NC(C(=O)N[C@H]3Cc4cccc(C(=O)O)c4OB3O)c3cccc(NS(N)(=O)=O)c3)C(=O)C2=O)CC1 (stereo partly drawn) [Example 120, (3R)-3-(2-(4-((1-aminocyclopropyl)methyl)-2,3-dioxopiperazine-1-carboxamido)-2-(3-(sulfamoylamino)phenyl)acetamido)-2-hydroxy-3,4-dihydro-2H-benzo[e][1,2]oxaborinine-8-carboxylic acid] | > 128 µg/mL | > 128 µg/mL | 8 to 16 µg/mL (≈ 12.4 to 24.9 µM) | 32 to 64 µg/mL (≈ 49.7 to 99.5 µM) | > 128 µg/mL | > 128 µg/mL | 2 to 4 µg/mL (≈ 3.11 to 6.22 µM) | 8 to 16 µg/mL (≈ 12.4 to 24.9 µM) | > 128 µg/mL | > 128 µg/mL | 8 to 16 µg/mL (≈ 12.4 to 24.9 µM) | 0.5 to 1 µg/mL (≈ 0.777 to 1.55 µM) |
